Test results published in patent publication US11306101B2 (Celgene Corporation, priority 2019, dated 2022).

Target: T1, CK1α (Homo sapiens, UniProt P48729+Q96SW2)
T1 construct: expressed in transfected cells
Assay: CK1α ePL degradation assay in MDS-L cells
Assay type: cell-based
Conditions: MDS-L cells expressing ePL-tagged CK1α; for DC50: concentration giving 50% CK1α degradation vs DMSO control; for Y: lowest measured CK1α level normalized to DMSO control
Procedure, shortened: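 MDS-L cells treated with compound in a 10-point, 3-fold series from 10 μM to 0.0005 μM at 37° C, 5% CO2 for the indicated times; CK1α measured by InCELL Hunter enzyme-fragment luminescence. Levels normalized to DMSO as percent of control; lowest level reached taken as Y value.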

T1 sequence (P48729 whole entry): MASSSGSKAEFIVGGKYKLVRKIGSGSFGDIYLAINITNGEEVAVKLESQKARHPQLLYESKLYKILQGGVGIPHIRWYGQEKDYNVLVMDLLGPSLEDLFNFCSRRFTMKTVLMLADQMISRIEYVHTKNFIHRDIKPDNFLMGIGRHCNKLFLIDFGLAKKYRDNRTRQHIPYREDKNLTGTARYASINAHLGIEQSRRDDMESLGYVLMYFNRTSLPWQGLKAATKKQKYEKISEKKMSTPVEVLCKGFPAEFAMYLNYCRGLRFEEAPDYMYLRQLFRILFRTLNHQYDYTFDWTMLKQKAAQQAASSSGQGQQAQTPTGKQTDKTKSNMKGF
T1 sequence (Q96SW2 whole entry): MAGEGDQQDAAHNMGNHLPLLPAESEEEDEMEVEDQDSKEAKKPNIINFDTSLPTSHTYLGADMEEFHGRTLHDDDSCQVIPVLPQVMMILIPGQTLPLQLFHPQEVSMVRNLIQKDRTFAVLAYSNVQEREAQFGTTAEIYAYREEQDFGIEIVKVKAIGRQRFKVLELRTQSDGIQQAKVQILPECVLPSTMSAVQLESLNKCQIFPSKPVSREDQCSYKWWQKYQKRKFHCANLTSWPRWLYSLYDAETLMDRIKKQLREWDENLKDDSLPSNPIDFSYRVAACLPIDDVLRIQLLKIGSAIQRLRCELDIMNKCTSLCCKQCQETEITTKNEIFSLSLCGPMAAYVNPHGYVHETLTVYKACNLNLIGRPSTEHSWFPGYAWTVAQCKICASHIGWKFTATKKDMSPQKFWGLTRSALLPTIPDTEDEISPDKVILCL
T1 sequence (Q16531 whole entry partner): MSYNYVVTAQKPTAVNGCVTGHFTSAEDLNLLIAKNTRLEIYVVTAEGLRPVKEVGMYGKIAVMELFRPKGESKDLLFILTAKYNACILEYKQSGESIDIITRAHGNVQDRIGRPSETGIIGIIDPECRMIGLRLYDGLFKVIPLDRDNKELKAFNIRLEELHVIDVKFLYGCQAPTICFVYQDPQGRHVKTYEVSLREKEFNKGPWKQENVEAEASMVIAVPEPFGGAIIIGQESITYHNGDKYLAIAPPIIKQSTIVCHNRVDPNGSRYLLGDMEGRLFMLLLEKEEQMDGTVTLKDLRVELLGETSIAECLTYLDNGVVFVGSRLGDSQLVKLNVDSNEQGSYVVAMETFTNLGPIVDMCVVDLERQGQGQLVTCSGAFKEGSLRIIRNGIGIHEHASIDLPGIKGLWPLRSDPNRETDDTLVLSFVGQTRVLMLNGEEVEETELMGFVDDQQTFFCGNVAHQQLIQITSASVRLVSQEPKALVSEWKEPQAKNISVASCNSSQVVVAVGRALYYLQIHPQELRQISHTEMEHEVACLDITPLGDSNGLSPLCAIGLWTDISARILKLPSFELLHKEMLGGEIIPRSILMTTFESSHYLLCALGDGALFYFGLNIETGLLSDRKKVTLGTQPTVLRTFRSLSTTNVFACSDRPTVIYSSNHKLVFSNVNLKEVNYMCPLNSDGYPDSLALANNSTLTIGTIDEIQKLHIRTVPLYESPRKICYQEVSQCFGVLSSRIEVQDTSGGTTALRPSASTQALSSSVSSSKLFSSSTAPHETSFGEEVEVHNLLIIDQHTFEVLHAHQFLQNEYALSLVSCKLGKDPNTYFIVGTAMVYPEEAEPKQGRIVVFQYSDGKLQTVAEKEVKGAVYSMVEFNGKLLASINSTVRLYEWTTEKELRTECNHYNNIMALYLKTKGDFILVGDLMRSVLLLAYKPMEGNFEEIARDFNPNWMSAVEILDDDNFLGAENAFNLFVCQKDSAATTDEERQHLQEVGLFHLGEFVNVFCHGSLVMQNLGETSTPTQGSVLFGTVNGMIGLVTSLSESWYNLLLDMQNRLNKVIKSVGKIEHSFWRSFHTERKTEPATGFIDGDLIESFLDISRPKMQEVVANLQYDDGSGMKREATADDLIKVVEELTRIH

| DC50 [nM] | Y | SMILES |
| --- | --- | --- |
| 100 to 500 | * (a Y value (shown as *) of 0<Y≤20%) | Cc1ccc([C@@H](NC(=O)c2ccc3c(c2F)CN(C2CCC(=O)NC2=O)C3=O)C(F)(F)F)cc1 (stereo partly drawn) [Example 144, 2-(2,6-dioxopiperidin-3-yl)-4-fluoro-1-oxo-N-((R)-2,2,2-trifluoro-1-p-tolylethyl)isoindoline-5-carboxamide] |
| < 100 | * (a Y value (shown as *) of 0<Y≤20%) | O=C1CCC(N2Cc3c(ccc(C(=O)N[C@H](c4ccc(F)cc4Cl)C(F)(F)F)c3F)C2=O)C(=O)N1 (stereo partly drawn) [Example 145, N-((R)-1-(2-chloro-4-fluorophenyl)-2,2,2-trifluoroethyl)-2-(2,6-dioxopiperidin-3-yl)-4-fluoro-1-oxoisoindoline-5-carboxamide] |
| 100 to 500 | ** (a Y value (shown as**) of 20%<Y≤35%) | O=C1CCC(N2Cc3c(ccc(C(=O)N[C@@H](CC(F)(F)F)c4cccc(F)c4)c3F)C2=O)C(=O)N1 (stereo partly drawn) [Example 146, 2-(2,6-dioxopiperidin-3-yl)-4-fluoro-1-oxo-N-((S)-3,3,3-trifluoro-1-(3-fluorophenyl)propyl)isoindoline-5-carboxamide] |
| 100 to 500 | ** (a Y value (shown as**) of 20%<Y≤35%) | O=C1CCC(N2Cc3cc(C(=O)N[C@H](c4ccc(Oc5ccccc5)cc4)C(F)(F)F)ccc3C2=O)C(=O)N1 (stereo partly drawn) [Example 147, 2-(2,6-dioxopiperidin-3-yl)-1-oxo-N-((R)-2,2,2-trifluoro-1-(4-phenoxyphenyl)ethyl)isoindoline-5-carboxamide] |
| < 100 | * (a Y value (shown as *) of 0<Y≤20%) | O=C1CCC(N2Cc3cc(C(=O)N[C@H](c4ccc(OC5CC5)cc4)C(F)(F)F)ccc3C2=O)C(=O)N1 (stereo partly drawn) [Example 148, N-((R)-1-(4-cyclopropoxyphenyl)-2,2,2-trifluoroethyl)-2-(2,6-dioxopiperidin-3-yl)-1-oxoisoindoline-5-carboxamide] |
| 500 to 1000 | ** (a Y value (shown as**) of 20%<Y≤35%) | O=C1CCC(N2Cc3cc(C(=O)N[C@@H](CC(F)(F)F)c4ccc(Cl)cc4)ccc3C2=O)C(=O)N1 (stereo partly drawn) [Example 149, N-((S)-1-(4-chlorophenyl)-3,3,3-trifluoropropyl)-2-(2,6-dioxopiperidin-3-yl)-1-oxoisoindoline-5-carboxamide] |
| 100 to 500 | ** (a Y value (shown as**) of 20%<Y≤35%) | CN(C)Cc1cccc([C@@H](NC(=O)c2ccc3c(c2)CN(C2CCC(=O)NC2=O)C3=O)C(F)(F)F)c1 (stereo partly drawn) [Example 150, N-((R)-1-(3-((dimethylamino)methyl)phenyl)-2,2,2-trifluoroethyl)-2-(2,6-dioxopiperidin-3-yl)-1-oxoisoindoline-5-carboxamide] |
| < 100 | * (a Y value (shown as *) of 0<Y≤20%) | O=C1CCC(N2Cc3cc(C(=O)N[C@H](c4c(F)cccc4Cl)C(F)(F)F)ccc3C2=O)C(=O)N1 (stereo partly drawn) [Example 151, N-((R)-1-(2-chloro-6-fluorophenyl)-2,2,2-trifluoroethyl)-2-(2,6-dioxopiperidin-3-yl)-1-oxoisoindoline-5-carboxamide] |
| < 100 | * (a Y value (shown as *) of 0<Y≤20%) | O=C1CCC(N2Cc3cc(C(=O)N[C@H](c4cccc(F)c4Cl)C(F)(F)F)ccc3C2=O)C(=O)N1 (stereo partly drawn) [Example 152, N-((R)-1-(2-chloro-3-fluorophenyl)-2,2,2-trifluoroethyl)-2-(2,6-dioxopiperidin-3-yl)-1-oxoisoindoline-5-carboxamide] |
| 100 to 500 | ** (a Y value (shown as**) of 20%<Y≤35%) | O=C1CCC(N2Cc3c(ccc(C(=O)N[C@H](c4ccc(F)cc4)C(F)(F)F)c3Cl)C2=O)C(=O)N1 (stereo partly drawn) [Example 153, 4-chloro-2-(2,6-dioxopiperidin-3-yl)-1-oxo-N-((R)-2,2,2-trifluoro-1-(4-fluorophenyl)ethyl)isoindoline-5-carboxamide] |
| < 100 | * (a Y value (shown as *) of 0<Y≤20%) | CC(C)[C@H](NC(=O)c1ccc2c(c1)CN(C1CCC(=O)NC1=O)C2=O)c1ccccc1 (stereo partly drawn) [Example 154, 2-(2,6-dioxopiperidin-3-yl)-N-((S)-2-methyl-1-phenylpropyl)-1-oxoisoindoline-5-carboxamide] |
| < 100 | * (a Y value (shown as *) of 0<Y≤20%) | O=C1CCC(N2Cc3cc(C(=O)N[C@H](c4ccccc4CN4CCOCC4)C(F)(F)F)ccc3C2=O)C(=O)N1 (stereo partly drawn) [Example 155, 2-(2,6-dioxopiperidin-3-yl)-1-oxo-N-((R)-2,2,2-trifluoro-1-(2-(morpholinomethyl)phenyl)ethyl)isoindoline-5-carboxamide] |
| 100 to 500 | * (a Y value (shown as *) of 0<Y≤20%) | C[C@]1(O)CC[C@H]([C@@H](NC(=O)c2ccc3c(c2)CN(C2CCC(=O)NC2=O)C3=O)C(F)(F)F)CC1 (stereo partly drawn) [Example 156, 2-(2,6-dioxopiperidin-3-yl)-1-oxo-N-((R)-2,2,2-trifluoro-1-((1r,4R)-4-hydroxy-4-methylcyclohexyl)ethyl)isoindoline-5-carboxamide] |
| < 100 | ** (a Y value (shown as**) of 20%<Y≤35%) | O=C1CCC(N2Cc3c(ccc(C(=O)N[C@H](c4ccccc4OC4CC4)C(F)(F)F)c3F)C2=O)C(=O)N1 (stereo partly drawn) [Example 157, N-((R)-1-(2-cyclopropoxyphenyl)-2,2,2-trifluoroethyl)-2-(2,6-dioxopiperidin-3-yl)-4-fluoro-1-oxoisoindoline-5-carboxamide] |
| < 100 | * (a Y value (shown as *) of 0<Y≤20%) | O=C1CCC(N2Cc3cc(C(=O)N[C@H](c4cccc(Oc5ccccc5)c4)C(F)(F)F)ccc3C2=O)C(=O)N1 (stereo partly drawn) [Example 158, 2-(2,6-dioxopiperidin-3-yl)-1-oxo-N-((R)-2,2,2-trifluoro-1-(3-phenoxyphenyl)ethyl)isoindoline-5-carboxamide] |
| < 100 | * (a Y value (shown as *) of 0<Y≤20%) | O=C1CCC(N2Cc3cc(C(=O)N[C@H](c4ccccc4Oc4ccccc4)C(F)(F)F)ccc3C2=O)C(=O)N1 (stereo partly drawn) [Example 159, 2-(2,6-dioxopiperidin-3-yl)-1-oxo-N-((R)-2,2,2-trifluoro-1-(2-phenoxyphenyl)ethyl)isoindoline-5-carboxamide] |
| < 100 | * (a Y value (shown as *) of 0<Y≤20%) | O=C1CCC(N2Cc3cc(C(=O)N[C@H](c4cc(F)ccc4Cl)C(F)(F)F)ccc3C2=O)C(=O)N1 (stereo partly drawn) [Example 160, N-((R)-1-(2-chloro-5-fluorophenyl)-2,2,2-trifluoroethyl)-2-(2,6-dioxopiperidin-3-yl)-1-oxoisoindoline-5-carboxamide] |
| < 100 | * (a Y value (shown as *) of 0<Y≤20%) | O=C1CCC(N2Cc3cc(C(=O)N[C@H](c4ccccc4OC4CC4)C(F)(F)F)ccc3C2=O)C(=O)N1 (stereo partly drawn) [Example 161, N-((R)-1-(2-cyclopropoxyphenyl)-2,2,2-trifluoroethyl)-2-(2,6-dioxopiperidin-3-yl)-1-oxoisoindoline-5-carboxamide] |
| 100 to 500 | ** (a Y value (shown as**) of 20%<Y≤35%) | O=C1CCC(N2Cc3cc(C(=O)N[C@@H](CC(F)(F)F)c4cccc(F)c4)ccc3C2=O)C(=O)N1 (stereo partly drawn) [Example 162, 2-(2,6-dioxopiperidin-3-yl)-1-oxo-N-((S)-3,3,3-trifluoro-1-(3-fluorophenyl)propyl)isoindoline-5-carboxamide] |
| < 100 | * (a Y value (shown as *) of 0<Y≤20%) | O=C1CCC(N2Cc3cc(C(=O)N[C@H](c4ccc(Cl)cc4Cl)C(F)(F)F)ccc3C2=O)C(=O)N1 (stereo partly drawn) [Example 163, N-((R)-1-(2,4-dichlorophenyl)-2,2,2-trifluoroethyl)-2-(2,6-dioxopiperidin-3-yl)-1-oxoisoindoline-5-carboxamide] |
| 100 to 500 | ** (a Y value (shown as**) of 20%<Y≤35%) | O=C1CCC(N2Cc3c(ccc(C(=O)N[C@H](c4ccc(Cl)cc4Cl)C(F)(F)F)c3F)C2=O)C(=O)N1 (stereo partly drawn) [Example 164, N-((R)-1-(2,4-dichlorophenyl)-2,2,2-trifluoroethyl)-2-(2,6-dioxopiperidin-3-yl)-4-fluoro-1-oxoisoindoline-5-carboxamide] |
| < 100 | * (a Y value (shown as *) of 0<Y≤20%) | CC(C)(O)C12CC([C@@H](NC(=O)c3ccc4c(c3)CN(C3CCC(=O)NC3=O)C4=O)C(F)(F)F)(C1)C2 (stereo partly drawn) [Example 165, 2-(2,6-dioxopiperidin-3-yl)-1-oxo-N-((R)-2,2,2-trifluoro-1-(3-(2-hydroxypropan-2-yl)bicyclo[1.1.1]pentan-1-yl)ethyl)isoindoline-5-carboxamide] |
| < 100 | * (a Y value (shown as *) of 0<Y≤20%) | O=C1CCC(N2Cc3cc(C(=O)N[C@H](C4CCC5(CC4)CC5)C(F)(F)F)ccc3C2=O)C(=O)N1 (stereo partly drawn) [Example 166, 2-(2,6-dioxopiperidin-3-yl)-1-oxo-N-((1R)-2,2,2-trifluoro-1-(spiro[2.5]octan-6-yl)ethyl)isoindoline-5-carboxamide] |
| < 100 | * (a Y value (shown as *) of 0<Y≤20%) | CC(C)[C@H](NC(=O)c1ccc2c(c1)CN(C1CCC(=O)NC1=O)C2=O)c1ccccc1F (stereo partly drawn) [Example 167, 2-(2,6-dioxopiperidin-3-yl)-N-((S)-1-(2-fluorophenyl)-2-methylpropyl)-1-oxoisoindoline-5-carboxamide] |
| < 100 | * (a Y value (shown as *) of 0<Y≤20%) | C[C@]1(O)CC[C@@H]([C@@H](NC(=O)c2ccc3c(c2)CN(C2CCC(=O)NC2=O)C3=O)C(F)(F)F)CC1 (stereo partly drawn) [Example 168, 2-(2,6-dioxopiperidin-3-yl)-1-oxo-N-((R)-2,2,2-trifluoro-1-((1s,4S)-4-hydroxy-4-methylcyclohexyl)ethyl)isoindoline-5-carboxamide] |
| < 100 | * (a Y value (shown as *) of 0<Y≤20%) | CC(C)[C@H](NC(=O)c1ccc2c(c1)CN(C1CCC(=O)NC1=O)C2=O)c1ccccc1Cl (stereo partly drawn) [Example 169, N-((S)-1-(2-chlorophenyl)-2-methylpropyl)-2-(2,6-dioxopiperidin-3-yl)-1-oxoisoindoline-5-carboxamide] |
